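Step 1: Grow cells in 96-well plates. Step 2: Expose to compound for 48 hours at 5 concentrations. Step 3: Interpolate endpoints linearly; if unreached, use highest concentration. GI50 = concentration required for 50% inhibition of growth. The concentration for full growth arrest is given as TGI.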
Legend:
Experiment in all cases: NCI-60 cell line screen, 48 h
TK-10 renal = test system: TK-10 renal
T-47D breast = test system: T-47D breast
K-562 leukemia = test system: K-562 leukemia
HS 578T breast = test system: HS 578T breast
NCI-H226 lung = test system: NCI-H226 lung
ACHN renal = test system: ACHN renal
RXF 393 renal = test system: RXF 393 renal
HCT-15 colon = test system: HCT-15 colon
UO-31 renal = test system: UO-31 renal
OVCAR-4 ovarian = test system: OVCAR-4 ovarian
HT29 colon = test system: HT29 colon
DU-145 prostate = test system: DU-145 prostate
U251 CNS = test system: U251 CNS
A549 NSCLC = test system: A549 NSCLC
786-0 renal = test system: 786-0 renal
BT-549 breast = test system: BT-549 breast
OVCAR-8 ovarian = test system: OVCAR-8 ovarian
SF-295 CNS = test system: SF-295 CNS
A498 renal = test system: A498 renal
MALME-3M melanoma = test system: MALME-3M melanoma
CCRF-CEM leukemia = test system: CCRF-CEM leukemia
HCT-116 colon = test system: HCT-116 colon
MDA-MB-231 breast = test system: MDA-MB-231 breast
MOLT-4 leukemia = test system: MOLT-4 leukemia
IGROV1 ovarian = test system: IGROV1 ovarian
MDA-MB-435 = test system: MDA-MB-435
SF-539 CNS = test system: SF-539 CNS
HL-60(TB) leukemia = test system: HL-60(TB) leukemia
UACC-62 melanoma = test system: UACC-62 melanoma
SN12C renal = test system: SN12C renal
EKVX NSCLC = test system: EKVX NSCLC
NCI-H460 lung = test system: NCI-H460 lung
NCI/ADR-RES ovarian = test system: NCI/ADR-RES ovarian
SNB-75 CNS = test system: SNB-75 CNS
LOX IMVI melanoma = test system: LOX IMVI melanoma
OVCAR-3 ovarian = test system: OVCAR-3 ovarian
M14 melanoma = test system: M14 melanoma
SK-MEL-5 melanoma = test system: SK-MEL-5 melanoma
HCC-2998 colon = test system: HCC-2998 colon
SK-OV-3 ovarian = test system: SK-OV-3 ovarian
NCI-H23 lung = test system: NCI-H23 lung
OVCAR-5 ovarian = test system: OVCAR-5 ovarian
SF-268 CNS = test system: SF-268 CNS
CAKI-1 renal = test system: CAKI-1 renal
MCF7 breast = test system: MCF7 breast
KM12 colon = test system: KM12 colon
SW-620 colon = test system: SW-620 colon
NCI-H522 lung = test system: NCI-H522 lung
UACC-257 melanoma = test system: UACC-257 melanoma
COLO 205 colon = test system: COLO 205 colon
HOP-92 NSCLC = test system: HOP-92 NSCLC
SK-MEL-28 melanoma = test system: SK-MEL-28 melanoma
SNB-19 CNS = test system: SNB-19 CNS
PC-3 prostate = test system: PC-3 prostate
SK-MEL-2 melanoma = test system: SK-MEL-2 melanoma
RPMI-8226 leukemia = test system: RPMI-8226 leukemia
HOP-62 NSCLC = test system: HOP-62 NSCLC

**Q.** What does the source list for `COC1C(CO)OC(n2c3ccccc3c3c4c(c5c6ccccc6[nH]c5c32)C(=O)NC4=O)C(OC(=O)C(N)CCCCN)C1O` (centres undefined)?
**A.** GI50 (TK-10 renal): 371 nM; TGI (TK-10 renal): 1460 nM; GI50 (T-47D breast): 14.5 nM; TGI (T-47D breast): 187 nM; GI50 (K-562 leukemia): 30.8 nM; TGI (K-562 leukemia): 8990 nM; GI50 (HS 578T breast): 299 nM; TGI (HS 578T breast): 2260 nM; GI50 (NCI-H226 lung): 37.1 nM; TGI (NCI-H226 lung): 291 nM; GI50 (ACHN renal): 22.6 nM; TGI (ACHN renal): 169 nM; GI50 (RXF 393 renal): 53.7 nM; TGI (RXF 393 renal): 815 nM; GI50 (HCT-15 colon): 1920 nM; TGI (HCT-15 colon): 9530 nM; GI50 (UO-31 renal): 215 nM; TGI (UO-31 renal): 903 nM; GI50 (OVCAR-4 ovarian): 593 nM; TGI (OVCAR-4 ovarian): 5710 nM; GI50 (HT29 colon): 357 nM; TGI (HT29 colon): 12900 nM; GI50 (DU-145 prostate): 168 nM; TGI (DU-145 prostate): 3210 nM; GI50 (U251 CNS): 12.8 nM; TGI (U251 CNS): 311 nM; GI50 (A549 NSCLC): 962 nM; TGI (A549 NSCLC): 9040 nM; GI50 (786-0 renal): 111 nM; TGI (786-0 renal): 3300 nM; GI50 (BT-549 breast): 165 nM; TGI (BT-549 breast): 2480 nM; GI50 (OVCAR-8 ovarian): 119 nM; TGI (OVCAR-8 ovarian): 6970 nM; GI50 (SF-295 CNS): 165 nM; TGI (SF-295 CNS): 1950 nM; GI50 (A498 renal): 5 nM; TGI (A498 renal): 230 nM; GI50 (MALME-3M melanoma): 24.5 nM; TGI (MALME-3M melanoma): 157 nM; GI50 (CCRF-CEM leukemia): 38.7 nM; TGI (CCRF-CEM leukemia): 2830 nM; GI50 (HCT-116 colon): 83.4 nM; TGI (HCT-116 colon): 50000 nM; GI50 (MDA-MB-231 breast): 50.4 nM; TGI (MDA-MB-231 breast): 1010 nM; GI50 (MOLT-4 leukemia): 56 nM; TGI (MOLT-4 leukemia): 13300 nM; GI50 (IGROV1 ovarian): 102 nM; TGI (IGROV1 ovarian): 2930 nM; GI50 (MDA-MB-435): 123 nM; TGI (MDA-MB-435): 1430 nM; GI50 (SF-539 CNS): 17.3 nM; TGI (SF-539 CNS): 139 nM; GI50 (HL-60(TB) leukemia): 5.92 nM; TGI (HL-60(TB) leukemia): 59.7 nM; GI50 (UACC-62 melanoma): 28.1 nM; TGI (UACC-62 melanoma): 185 nM; GI50 (SN12C renal): 23.7 nM; TGI (SN12C renal): 56.2 nM; GI50 (EKVX NSCLC): 592 nM; TGI (EKVX NSCLC): 3150 nM; GI50 (NCI-H460 lung): 1060 nM; TGI (NCI-H460 lung): 3780 nM; GI50 (NCI/ADR-RES ovarian): 1400 nM; TGI (NCI/ADR-RES ovarian): 21900 nM; GI50 (SNB-75 CNS): 156 nM; TGI (SNB-75 CNS): 3660 nM; GI50 (LOX IMVI melanoma): 5 nM; TGI (LOX IMVI melanoma): 35.1 nM; GI50 (OVCAR-3 ovarian): 144 nM; TGI (OVCAR-3 ovarian): 1160 nM; GI50 (M14 melanoma): 132 nM; TGI (M14 melanoma): 3230 nM; GI50 (SK-MEL-5 melanoma): 42.6 nM; TGI (SK-MEL-5 melanoma): 125 nM; GI50 (HCC-2998 colon): 173 nM; TGI (HCC-2998 colon): 1500 nM; GI50 (SK-OV-3 ovarian): 225 nM; TGI (SK-OV-3 ovarian): 3910 nM; GI50 (NCI-H23 lung): 200 nM; TGI (NCI-H23 lung): 1530 nM; GI50 (OVCAR-5 ovarian): 386 nM; TGI (OVCAR-5 ovarian): 2800 nM; GI50 (SF-268 CNS): 23.2 nM; TGI (SF-268 CNS): 721 nM; GI50 (CAKI-1 renal): 23.2 nM; TGI (CAKI-1 renal): 65.5 nM; GI50 (MCF7 breast): 79.6 nM; TGI (MCF7 breast): 5450 nM; GI50 (KM12 colon): 52.9 nM; TGI (KM12 colon): 599 nM; GI50 (SW-620 colon): 10.8 nM; TGI (SW-620 colon): 1670 nM; GI50 (NCI-H522 lung): 15.7 nM; TGI (NCI-H522 lung): 440 nM; GI50 (UACC-257 melanoma): 437 nM; TGI (UACC-257 melanoma): 5300 nM; GI50 (COLO 205 colon): 96.3 nM; TGI (COLO 205 colon): 5670 nM; GI50 (HOP-92 NSCLC): 35.3 nM; TGI (HOP-92 NSCLC): 735 nM; GI50 (SK-MEL-28 melanoma): 165 nM; TGI (SK-MEL-28 melanoma): 2260 nM; GI50 (SNB-19 CNS): 88.9 nM; TGI (SNB-19 CNS): 14200 nM; GI50 (PC-3 prostate): 116 nM; TGI (PC-3 prostate): 2580 nM; GI50 (SK-MEL-2 melanoma): 505 nM; TGI (SK-MEL-2 melanoma): 1710 nM; GI50 (RPMI-8226 leukemia): 1330 nM; TGI (RPMI-8226 leukemia): 11600 nM; GI50 (HOP-62 NSCLC): 144 nM; TGI (HOP-62 NSCLC): 2400 nM

— PubChem BioAssay (NCI)
